Read-outs that look alike come from different tables or passages of the source.

Assay [1] deals with T1, MMP-13 (Homo sapiens, UniProt P45452).
T1 construct: made in house; host or cells: baculovirus / insect cells
Nature of the assay: biochemical. As to conditions: read-out: MMP-13 IC50. As for the experimental part:
(§1) The compounds prepared in the manner described in the Examples above were assayed for activity by an in vitro assay. […] Briefly, 4-aminophenylmercuric acetate (APMA) or trypsin-activated MMPs were incubated with various concentrations of the inhibitor compound at room temperature for 5 minutes.
(§2) The expressed enzyme was purified first over a heparin agarose column and then over a chelating zinc chloride column. The proenzyme was activated by APMA for use in the assay.
(§3) MMP-1 expressed in transfected HT-1080 cells was provided by Dr. Harold Welgus of Washington University, St. Louis, Mo. The enzyme was also activated using APMA and was then purified over a hydroxamic acid column. Dr. Welgus also provided transfected HT-1080 cells that expressed MMP-9. Transfected cells that expressed MMP-2 were provided by Dr. Gregory Goldberg, also of Washington University. Studies with MMP-7 were carried out at pH 7.5 in the presence of 0.02% 2-mercaptoethanol using conditions otherwise similar to those used for the other enzymes. The enzyme was obtaind from a hMMP-7-expressing E. coli clone that was a gift of Dr. Steven Shapiro of Washington University, St. Louis, Mo. Further specifics for preparation and use of these enzymes can be found in the scientific literature describing these enzymes. See, for example, Enzyme Nomenclature, Academic Press, San Diego, Calif. […] The enzyme substrate is a methoxycoumarin-containing polypeptide having the following sequence:
(§4) MCA-ProLeuGlyLeuDpaAlaArgNH2, wherein MCA is methoxycoumarin and Dpa is 3-(2,4-dinitrophenyl)-L-2,3-diaminopropionyl alanine.
(§5) The buffer used for assays contained 100 mM Tris-HCl, 100 mM NaCl, 10 mM CaCl2 and 0.05 percent polyethyleneglycol (23) lauryl ether at a pH value of 7.5. Assays were carried out at room temperature, and dimethyl sulfoxide (DMSO) at a final concentration of 1 percent was used to dissolve inhibitor compound.
(§6) The assayed inhibitor compound in DMSO/buffer solution was compared to an equal amount of DMSO/buffer with no inhibitor as control using Microfluor White Plates (Dynatech). The inhibitor or control solution was maintained in the plate for 10 minutes and the substrate was added to provide a final concentration of 4 μM.
(§7) Inhibition was measured as a reduction in fluorescent intensity as a function of inhibitor concentration, using a Perkin Elmer L550 plate reader. The IC50 values were calculated from those values. The results are set forth in the Inhibition Table A, below, reported in terms of IC50 to three significant figures, where appropriate.

The target in assay [2] is T2, MMP-2 (Homo sapiens, UniProt P08253).
T2 construct: made in house; provided by Dr. Gregory Goldberg, Washington University
T2 sequence (P08253 110-660): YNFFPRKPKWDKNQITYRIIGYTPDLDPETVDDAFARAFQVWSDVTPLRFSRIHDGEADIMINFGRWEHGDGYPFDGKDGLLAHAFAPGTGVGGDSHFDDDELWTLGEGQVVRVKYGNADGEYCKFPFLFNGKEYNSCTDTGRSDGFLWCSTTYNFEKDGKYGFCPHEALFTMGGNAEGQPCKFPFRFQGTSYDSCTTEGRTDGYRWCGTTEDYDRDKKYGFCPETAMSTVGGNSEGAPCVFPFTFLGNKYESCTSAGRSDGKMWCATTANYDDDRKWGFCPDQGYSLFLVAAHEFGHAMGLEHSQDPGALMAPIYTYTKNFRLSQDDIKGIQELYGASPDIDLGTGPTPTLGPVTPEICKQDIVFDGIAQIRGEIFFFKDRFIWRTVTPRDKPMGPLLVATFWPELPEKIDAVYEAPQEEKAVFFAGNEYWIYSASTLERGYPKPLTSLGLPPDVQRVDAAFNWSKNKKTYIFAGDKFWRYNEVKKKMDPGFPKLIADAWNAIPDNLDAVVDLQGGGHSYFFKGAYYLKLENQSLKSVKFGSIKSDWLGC
Nature of the assay: biochemical. As for the experimental part: as §1, §2, §3, §4, §5, §6, §7

Where [3] appears, read: recombinant human MMP-13, MCA peptide substrate 4 μM, pH 7.5, room temperature.
Setting [4] is: recombinant human MMP-2, MCA peptide substrate 4 μM, pH 7.5, room temperature, read-out: MMP-2 IC50.

For `COCCN1CCC(C(N)=O)(S(=O)(=O)c2ccc(Oc3ccc(OC(F)(F)F)cc3)cc2)CC1` [Example 1], the IC50 in assay [1] (setting [3]) was determined as 22.7 nM; in assay [2] (setting [4]) it was 8.5 nM.
The matching figures for `C#CCN1CCC(C(N)=O)(S(=O)(=O)c2ccc(Sc3ccccc3)cc2)CC1` [Example 2]: 5500 nM and 6000 nM.
On to `O=C(C1CCN(c2ccc(S(=O)(=O)C3(C(=O)NO)CCOCC3)cc2)CC1)N1CCN(c2ccc(C(F)(F)F)cc2)CC1` [Example 38], for which the IC50 in assay [1] came to 67.4 nM; in assay [2] (read-out: MMP-2 IC50), 6000 nM.
For `C=CCN(CC=C)C(=O)C1CCN(c2ccc(S(=O)(=O)C3(C(=O)NO)CCOCC3)cc2)CC1` [Example 48], the IC50 was 27 nM in assay [1] (setting [3]) and 3200 nM in assay [2] (setting [4]).
`CC1CC(C)CN(C(=O)C2CCN(c3ccc(S(=O)(=O)C4(C(=O)NO)CCOCC4)cc3)CC2)C1` (stereo not drawn) [Example 55]: the figures for the IC50 in assay [1] (setting [3]) and in assay [2] (setting [4]) were 10 nM and over 10000 nM, respectively.
The corresponding values for `COc1ccccc1N1CCN(c2ccc(S(=O)(=O)C3(C(=O)NO)CCOCC3)cc2)CC1` [Example 85] are 130 nM and 370 nM.
The corresponding values for `O=C(NO)C1(S(=O)(=O)c2ccc(N3CCC(OCc4cccc(C(F)(F)F)c4)CC3)cc2)CCOCC1` [Example 177] are 8.8 nM and 520 nM.
The matching figures for `CNC(=S)N1CCC(C(=O)NO)(S(=O)(=O)c2ccc(Oc3ccc(OC(F)(F)F)cc3)cc2)CC1` [Example 198, N-hydroxy-4[[4-(4-trifluoromethoxyphenoxy)-]sulfonyl]-1-(N-methylthiourea)-4-piperidinecarboxamide]: 0.375 nM and 0.25 nM.
As to `O=C(NO)C1(S(=O)(=O)c2ccc(Oc3ccc(C(F)(F)F)cc3)cc2)CCN(C2CC2)CC1` [Example 269], the IC50 in assay [2] (MMP-2 IC50 (nM)) was under 0.1 nM.
Still for that read-out and setting: with `O=C(NO)C1(S(=O)(=O)c2ccc(Oc3ccc(C(F)(F)F)cc3)cc2)CCN(C2CC2)CC1` [Example 270] the figure was 1 nM.
Take `O=C(NO)C1(S(=O)(=O)c2ccc(Oc3ccc(C(F)(F)F)cc3)cc2)CCN(C2CC2)CC1` [Example 271]: the IC50 in assay [2] (MMP-2 IC50 (nM)) was found to be 0.17 nM.
Consider `O=C(NO)C1(S(=O)(=O)c2ccc(N3CCN(c4ccc(Cl)cc4)CC3)cc2)CCN(C2CC2)CC1` [Example 354], for which the IC50 in assay [1] (setting [3]) was 1.6 nM; in assay [2] (setting [4]) it was 15.4 nM.
The corresponding values for `O=C(NO)C1(S(=O)(=O)c2ccc(N3CCN(c4ccc(C(F)(F)F)cc4)CC3)cc2)CCN(C2CC2)CC1` [Example 356] are 2.4 nM and 32.6 nM.
The corresponding values for `C=C(C)c1ccc(N2CCN(c3ccc(S(=O)(=O)C4(C(=O)NO)CCN(C5CC5)CC4)cc3)CC2)cc1` [Example 360] are 10 nM and 5.6 nM.
For the compound `COc1ccc(N2CCN(c3ccc(S(=O)(=O)C4(C(=O)NO)CCN(C5CC5)CC4)cc3)CC2)cc1` [Example 368], the IC50 in assay [2] (setting [4]) was 7 nM.
For the compound `O=C(NO)C1(S(=O)(=O)c2ccc(N3CCN(c4ccccc4)CC3)cc2)CCN(C2CC2)CC1` [Example 369], the IC50 in assay [1] (setting [3]) is 3.3 nM; in assay [2] (setting [4]) it was 5.4 nM.
The matching figures for `CCc1ccc(C(=O)C2CCN(c3ccc(S(=O)(=O)C4(C(=O)NO)CCN(C5CC5)CC4)cc3)CC2)cc1` [Example 371]: 11.1 nM and 400 nM.
`Cc1ccc(C(=O)C2CCN(c3ccc(S(=O)(=O)C4(C(=O)NO)CCN(C5CC5)CC4)cc3)CC2)cc1` [Example 373]: the IC50 turned out to be 3 nM in assay [1] (setting [3]) and 80 nM in assay [2] (setting [4]).
The corresponding values for `CCOc1ccc(C(=O)C2CCN(c3ccc(S(=O)(=O)C4(C(=O)NO)CCN(C5CC5)CC4)cc3)CC2)cc1` [Example 376] are 5.5 nM and 230 nM.
The corresponding values for `O=C(NO)C1(S(=O)(=O)c2ccc(N3CCC(Sc4nc5ccccc5o4)CC3)cc2)CCN(C2CC2)CC1` [Example 382] are 11.4 nM and 260 nM.
The matching figures for `O=C(NO)C1(S(=O)(=O)c2ccc(N3CCC(c4nc(-c5cccc(C(F)(F)F)c5)no4)CC3)cc2)CCN(C2CC2)CC1` [Example 388]: 50 nM and 430 nM.
`O=C(NO)C1(S(=O)(=O)c2ccc(N3CCC(SCc4ccc(C(F)(F)F)cc4)CC3)cc2)CCN(C2CC2)CC1` [Example 394]: the IC50 in assay [1] (setting [3]) was 0.5 nM; in assay [2] (setting [4]) it was 8 nM.
The matching figures for `C[C@H](OC1CCN(c2ccc(S(=O)(=O)C3(C(=O)NO)CCN(C4CC4)CC3)cc2)CC1)c1ccccc1` [Example 400]: 23.5 nM and 520 nM.
The matching figures for `O=CN1CCC(C(=O)NO)(S(=O)(=O)c2ccc(Oc3ccc(OC(F)(F)F)cc3)cc2)CC1` [Example 452]: under 0.1 nM and under 0.1 nM.
The corresponding values for `O=C(NO)C1(S(=O)(=O)c2ccc(N3CCN(CCO)CC3)cc2)CCOCC1` [Example 623] are 350 nM and 1400 nM.
As to `Cc1ccc(C(O)C2CCN(c3ccc(S(=O)(=O)C4(C(=O)NO)CCOCC4)cc3)CC2)cc1C` (stereo not drawn) [Example 826], the IC50 was 40 nM in assay [1] (setting [3]) and 650 nM in assay [2] (setting [4]).
The matching figures for `O=C(NO)C1(S(=O)(=O)c2ccc(C3=CCC(c4ccccc4)CC3)cc2)CCOCC1` (stereo not drawn) [Example 828]: 1.5 nM and 12.8 nM.
The corresponding values for `COc1cccc(S(=O)(=O)N2CC(Oc3ccc(S(=O)(=O)C4(C(=O)NO)CCOCC4)cc3)C2)c1` [Example 829] are 6 nM and 22 nM.
The corresponding values for `Cc1ccc(S(=O)(=O)N(C)C2CCN(c3ccc(S(=O)(=O)C4(C(=O)NO)CCOCC4)cc3)CC2)cc1` [Example 834] are 150 nM and 780 nM.
Consider `CN(C)c1ccc(S(=O)(=O)C2CCN(c3ccc(S(=O)(=O)C4(C(=O)NO)CCOCC4)cc3)CC2)cc1` [Example 836], for which the IC50 amounted to 135 nM in assay [1] (setting [3]) and 4200 nM in assay [2] (setting [4]).
The matching figures for `CC(C)(C)c1ccc(CC2CCN(c3ccc(S(=O)(=O)C4(C(=O)NO)CCOCC4)cc3)CC2)cc1` [Example 841]: 285 nM and 1900 nM.
The corresponding values for `CS(=O)(=O)c1ccccc1S(=O)(=O)N1CC(Oc2ccc(S(=O)(=O)C3(C(=O)NO)CCOCC3)cc2)C1` [Example 845] are 28.6 nM and 2000 nM.
As to `CCCCS(=O)(=O)N1CC(Oc2ccc(S(=O)(=O)C3(C(=O)NO)CCOCC3)cc2)C1` [Example 851], the IC50 in assay [1] (setting [3]) was determined as 3.7 nM; in assay [2] (setting [4]), 42.5 nM.
Turning to `CN(C)c1cccc2c(S(=O)(=O)N3CC(Oc4ccc(S(=O)(=O)C5(C(=O)NO)CCOCC5)cc4)C3)cccc12` [Example 852], the values for the 50% inhibitory concentration (IC50) in assay [1] (setting [3]) and in assay [2] (setting [4]) were 25 nM and 3000 nM, respectively.
The matching figures for `CN(C)S(=O)(=O)N1CC(Oc2ccc(S(=O)(=O)C3(C(=O)NO)CCOCC3)cc2)C1` [Example 853]: 15.8 nM and 120 nM.
The matching figures for `CC(=O)c1ccccc1S(=O)(=O)N1CC(Oc2ccc(S(=O)(=O)C3(C(=O)NO)CCOCC3)cc2)C1` [Example 854]: 40 nM and 3300 nM.
As to `CSc1ccc(C(=O)C2CCN(c3ccc(S(=O)(=O)C4(C(=O)NO)CCOCC4)cc3)CC2)cc1` [Example 856], the IC50 in assay [1] (setting [3]) was 1.2 nM; in assay [2] (setting [4]), 250 nM.
The matching figures for `O=C(c1ccc(Cl)cc1)C1CCN(c2ccc(S(=O)(=O)C3(C(=O)NO)CCOCC3)cc2)CC1` [Example 857]: 1.3 nM and 120 nM.

These data come from US6750228B1, “Aromatic sulfone hydroxamic acid metalloprotease inhibitor” (priority 1997, dated 2004).
